Data taken from patent US12551527B2, “Drug delivery systems for treatment of infections” (Wayne State University, priority 2017, dated 2026).
Like-named read-outs stand apart in the source and are kept apart here.

Experiments:
ATCC 29213 (MSSA strain) = experiment: MIC by broth microdilution susceptibility testing; assay type: cell-based; settings: Staphylococcus aureus
Method: (§1) Susceptibility Testing. […] The strains tested were SA 494 and ATCC 29213.
(§2) Susceptibility testing. […] The treatment groups were compared to their commercial drug counterparts, both individually and in combination. […] SA 494 is the MRSA strain, and ATCC 29213 is the MSSA strain. The results were obtained as follows:
(§3) To test the effect of the presence of one drug that may enhance the MIC of the other in combination, combination MIC studies were performed. […] The results for MIC of liposomal CFZ in 0.5×the MIC of liposomal VAN were as follows:
(§4) However, liposomal VAN+CFZ [L (VAN+CFZ)] performed much better as compared to commercial VAN+CFZ (a mixture of non-liposomal antibiotics) in MRSA 494/MSSA 29213. The L(VAN+CFZ) has more than >2-4 fold improvement of MIC as compared to VAN+CFZ. Lower the MIC, the better is the MRSA killing.

SA 494 (MRSA strain) = experiment: MIC by broth microdilution susceptibility testing; assay type: cell-based; settings: Staphylococcus aureus
Method: as §1, §2, §3, §4

[1] = cited from earlier work
ATCC 29213 = experiment: Time-kill analysis in 24 well plates (CLSI); assay type: cell-based, Staphylococcus aureus; settings: tested at 1/2×MIC, 1×MIC, 24 h, FIG. 13B
Method: Time kill analysis was performed in 24 well plates according to CLSI guidelines (Patel 2017. M100: Performance Standards for Antimicrobial Susceptibility Testing, 27th Edition .224). Bactericidal activity was defined as >3 log CFU/ml reduction from baseline (initial inoculum). […] Lower the MIC, the better is the MRSA killing.

MRSA 494 biofilm = experiment: Biofilm disruption, pin lid method (Calgary biofilm device); assay type: cell-based, Staphylococcus aureus; settings: FIG. 14, FIG. 15
Method: The Minimum Inhibitory […] (MIC) in presence of biofilm was determined using the pin lid method or Calgary biofilm device (Barber et al., Antimicrob Agents Chemother. 58(5):2989-92, 2014; De Oliveira et al., Int J Mol Sci. 17(9), 2016). This method is used for defining the biofilm MIC vs. antibiotic or combination of antibiotics.

Row | Structure (SMILES) | MIC (ATCC 29213 (MSSA strain); MSSA 29213, Example 4 table, read-out: MIC values) [µg/mL] | MIC (ATCC 29213 (MSSA strain); strain 29213 (MSSA), broth microdilution, 24 h at 35° C., Example 1, read-out: MC Values (MIC)) [µg/mL] | MIC (SA 494 (MRSA strain); MRSA 494, Example 4 table, read-out: MIC values) [µg/mL] | MIC (SA 494 (MRSA strain); strain 494 (MRSA), broth microdilution, 24 h at 35° C., Example 1, read-out: MC Values (MIC)) [µg/mL] | log P [1] | MIC (ATCC 29213 (MSSA strain); 24 h, read-out: MC Values (MIC)) [µg/mL] | MIC (ATCC 29213 (MSSA strain); read-out: MIC values) [µg/mL] | MIC (SA 494 (MRSA strain); MRSA, 24 h, read-out: MC Values (MIC)) [µg/mL] | MIC (SA 494 (MRSA strain); MRSA, read-out: MIC values) [µg/mL] | time-kill result (ATCC 29213) | biofilm disruption (in words) (MRSA 494 biofilm)
1 | Cc1nnc(SCC2=C(C(=O)O)N3C(=O)[C@@H](NC(=O)Cn4cnnn4)[C@H]3SC2)s1 [CCFZ, cefazolin] | 0.5 | 0.5 | > 64 | > 16 | −0.58 |  |  |  |  |  | 
2 | CN[C@H](CC(C)C)C(=O)N[C@H]1C(=O)N[C@@H](CC(N)=O)C(=O)N[C@H]2C(=O)N[C@H]3C(=O)N[C@H](C(=O)N[C@H](C(=O)O)c4cc(O)cc(O)c4-c4cc3ccc4O)[C@H](O)c3ccc(c(Cl)c3)Oc3cc2cc(c3O[C@@H]2O[C@H](CO)[C@@H](O)[C@H](O)[C@H]2O[C@H]2C[C@](C)(N)[C@H](O)[C@H](C)O2)Oc2ccc(cc2Cl)[C@H]1O [CVAN, vancomycin] |  |  |  |  |  | 0.5 | 0.5 | 1 | 1 | grow above the initial inoculum at 24 h | barely showed any anti-biofilm effect
